# Assays:
# [1] = test system: HCT116 cells; assay: TUNEL assay in HCT116; format: cell-based, human; settings: 5 or 10 μM, 16 h
# Protocol: (§1) HT29, HCT116, and FHC cells were cultured in chamber slides and treated with 5 μM NSC735847, 10 μM NSC735847, or vehicle (0.1% DMSO). The cells were then washed with PBS and fixed in 4% paraformaldehyde before detection of double stranded DNA breaks that are characteristic of apoptosis. Terminal deoxynucleotidyl transferase dUTP nick end labeling (TUNEL) assays were performed as described by the manufacturer (in situ Cell Death Detection Kit; Roche; Indianapolis, IN). Briefly, fixed cells were incubated in permeabilization solution (0.1% Triton X-100 in 0.1% sodium citrate) for 2 min on ice. The slides were rinsed twice with PBS, 50 μL TUNEL reaction mixture was added, and then the samples were incubated for 1 h at 37°C in the dark. The slides were overlayed with antifade mounting medium containing DAPI and then visualized using a Zeiss LSM 700 confocal microscope system (Carl Zeiss Microscopy, LLC, White Plains, NY).
# [2] = test system: subcutaneous or orthotopic non-small cell lung cancer lesions; settings: athymic nude mice with subcutaneous or orthotopic non-small cell lung cancer lesions; cited from earlier work
# [3] = test system: intracellular iron in HT29 cells; assay: Intracellular iron measurement (QuantiChrom kit); format: cell-based, human; settings: HT29, 10 μM, 4, 8 and 16 h
# Protocol: HT29 cells were plated in 100 mm tissue culture plates for 48 h and then the cells were treated as indicated in the text. The cells were washed twice with PBS and then 100 μl triton lysis buffer (without EDTA) was added. The intracellular iron concentrations were determined using the QuantiChrom iron assay kit (BioAssay Systems; #ab83366) following the manufacturer's instructions. Briefly, iron standards of different concentrations were prepared by diluting the iron standard provided with the kit with distilled water. The diluted standards (50 μL) and sample cell lysates (50 μL) were transferred into a clear flat bottom 96-well-plate. Working reagent was prepared by mixing 20 volumes of reagent A, 1 volume reagent B and 1 volume reagent C provided with the kit. The working reagent (200 μL) was then added to the standard and sample wells. After mixing, the plate was incubated 40 min at room temperature and then the absorbance was measured at 590 nm. The iron concentration in each sample was calculated as described in the kit protocol.
# [4] = test system: P-PERK, P-eIF2α, CHOP10, PARP, caspase-3, ferritin in HT29 cells; assay: Western blot of ER stress and apoptosis proteins in HT29; format: cell-based, human
# Protocol: (§2) Western blot analysis was conducted as described previously ([35]). Briefly, the cells were cultured in 100 mm dishes for 48 h before treatment. The cells were then treated as described in the figure legends. For vehicle-treated samples, DMSO was added to serum-free culture medium at a maximum concentration of 0.1% (v/v). After experimentation, the cells were washed twice with phosphate buffer saline (PBS) and then 100 μl of Triton lysis buffer [25 mM HEPES, 100 mM NaCl, 1 mM EDTA, 10% (v/v) glycerol, 1% (v/v) Triton X-100], containing protease and […] inhibitors, was added to the cells. Protein concentrations were determined by using BCA reagents (Thermo Fisher Scientific Inc., IL). Equal concentrations of each sample were loaded onto SDS–PAGE gels and protein bands transferred to nitrocellulose membranes using semi-dry transfer cells (TRANS-BLOTSD; Bio-Rad Laboratories, Hercules, CA). The membranes were incubated for 2 h at room temperature in Odyssey blocking buffer (LI-COR Biosciences, Lincoln, NE). Membranes were then incubated overnight at 4C with primary antibody followed by 1 h of incubation at room temperature with secondary antibody. All primary antibodies were used at a dilution of 1:1,000 except anti-GAPDH and anti-CHOP10 antibodies which were used at 1:10,000 and 1:500 dilutions, respectively. All secondary antibodies were used at a dilution of 1:15,000. Protein bands were visualized using Odyssey® CLx digital fluorescence imaging system (LI-COR, Lincoln, Nebraska). Band intensities were quantified by using ImageJ software ([36]).
# [5] = test system: FHC cells; assay: TUNEL assay in FHC; format: cell-based, human; settings: 5 or 10 μM, 16 h
# Protocol: as §1
# [6] = test system: HCT116 cells; assay: MTS cell viability assay, colon cancer cells HCT116; format: cell-based, human
# Protocol: (§3) The human colon cancer cell lines HT29 and HCT116 were cultured in McCoy's 5A medium (Sigma Aldrich, St. Louis, MO) containing 10% heat-inactivated fetal bovine serum (FBS), penicillin (100 units/ml), and streptomycin (100 μg/ml). The non-tumorigenic colon cell line, FHC, was cultured in DMEM: F12 (1:1) medium supplemented with 10% heat inactivated FBS, 25 mM HEPES (Thermo Fisher Scientific Inc., IL), 10 ng/ml cholera toxin (Sigma Aldrich, St. Louis, MO), 0.005 mg/ml insulin (Thermo Fisher Scientific Inc., IL), 0.005 mg/ml, transferrin (Sigma Aldrich, St. Louis, MO), 100 ng/ml hydrocortisone (Sigma Aldrich, St. Louis, MO), 20 ng/mL human recombinant epidermal growth factor (Thermo Fisher Scientific Inc., IL), 100 units/ml penicillin, and 100 μg/ml streptomycin.
# (§4) Cells were cultured in 96-well-plates for 48 h before treatment. Serum-free media containing different agents was added to the cells at the concentration and time period described in the figure legend. MTS reagent (Promega, Madison, WI) was then added to each well and the absorbance was measured at 495 nm as directed by the manufacturer. In the presence of MTS reagent, the absorbance reading is proportional to the number of viable cells. The half-maximal inhibitory concentration (IC50) of the tested compounds is the concentration that reduces the viability of cells by 50%. IC50 was calculated after 24 h of treatment ([30], [31]) as described previously ([32]–[34]) from dose-response curves (log drug concentration vs. percentage viability from untreated cells) generated by non-linear regression analysis with GraphPad Prism 5 software (GraphPad Software, San Diego, California).
# [7] = test system: FHC cells; assay: MTS cell viability assay, non-tumorigenic colon cells; format: cell-based; settings: Homo sapiens, 24 h treatment
# Protocol: as §3, §4
# [8] = test system: PERK, eIF2a, CHOP10, PARP, caspase 3 in FHC cells; assay: Western blot of ER stress and apoptosis proteins in FHC; format: cell-based, human; settings: 10 μM, 1-16 h
# Protocol: as §2, with “All primary antibodies were used at a dilution of 1:1,000 except anti-GAPDH and anti-CHOP10 antibodies which were used at 1:10,000 and 1:500 dilutions, respectively. All secondary antibodies were used at a dilution of 1:15,000.” left out
# [9] = test system: caspase 3/7 activity in FHC cells; assay: Caspase-Glo 3/7 activity assay in FHC; format: cell-based, human; settings: 16 h, 1.25-10 μM
# Protocol: The cells were plated in white-walled 96-well-plates and then they were cultured at 37°C for 48 h. Serum-free culture medium containing the appropriate concentration of different agents was added to the cells for the indicated period of time. Caspase-Glo 3/7 reagent (Promega, Madison, WI) was added to each well and luminescence was detected as directed by the manufacturer. The Caspase-Glo 3/7 kit measures the activity of the executioner caspases 3 and 7 using the luminogenic substrate (Z-DEVD-aminoluciferin) as substrate.
structure (smiles),measurement,setting,value
CC1CCC2C(C)C(OCC(COC3OC4OC5(C)CCC6C(C)CCC(C3C)C46OO5)=NO)OC3OC4(C)CCC1C32OO4 (centres unmarked) [compound (3)],TUNEL positive cells in HCT-116,[1],increased the quantity of TUNEL positive cells
same,body weight of tumor-bearing mice,[2],did not cause significant changes in the body weight
same,cellular free iron,[3],time-dependent increase in cellular free iron
same,CHOP10 expression,"[4]; HT29, 10 μM, 6 and 8 h",marked increase
same,cleavage of PARP,"[4]; HT29, 10 μM, 8 and 16 h",stimulated the cleavage
same,cleavage of caspase-3,"[4]; HT29, 10 μM, 8 and 16 h",stimulated the cleavage
same,"phosphorylation of PERK, increase compared to vehicle-treated cells","[4]; HT-29, 10 μM, 1 and 2 h",more than 7 fold
same,"phosphorylation of eIF2α, increase compared to vehicle-treated cells","[4]; HT-29, 10 μM, 1 and 2 h",more than 7 fold
same,TUNEL positive cells in FHC,[5],absent
same,IC50,"[6]; Homo sapiens, HCT-116, MTS viability, 24 h treatment",11.8 µM
same,cell death / survival of HCT116 cells,"[6]; MTS, 24 h, single agents or combinations",induced death in a concentration-dependent manner
same,IC50,[7],> 25 µM
same,"activation of PERK, eIF2a, CHOP10, PARP, caspase 3 in FHC",[8],did not increase the activation
same,caspase 3/7 activity in FHC,[9],not in FHC cells

# Source: PMC7313430, “Heme-Dependent ER Stress Apoptosis: A Mechanism for the Selective Toxicity of the Dihydroartemisinin, NSC735847, in Colorectal Cancer Cells” (Frontiers in Oncology, 2020)
